# Test results from US10766866B2, “Deterrents for arthropods and marine organisms” (priority 2017, dated 2020).
# Where two headings read alike, the source gives them in different places.
# Columns and labels:
# [1] = biological target: T1, AgAOctR (Anopheles octopamine receptor isoform A), cloned α-like OctR (Anopheles gambiae, UniProt Q7PRZ8); assay: OctR activation: change in intracellular calcium (CALCIUM 6QR dye, FlexStation 3) in stably transfected mammalian cells; assay type: cell-based; details: agonist
# T1 construct: Gq calcium readout
# T1 sequence (Q7PRZ8 1-592): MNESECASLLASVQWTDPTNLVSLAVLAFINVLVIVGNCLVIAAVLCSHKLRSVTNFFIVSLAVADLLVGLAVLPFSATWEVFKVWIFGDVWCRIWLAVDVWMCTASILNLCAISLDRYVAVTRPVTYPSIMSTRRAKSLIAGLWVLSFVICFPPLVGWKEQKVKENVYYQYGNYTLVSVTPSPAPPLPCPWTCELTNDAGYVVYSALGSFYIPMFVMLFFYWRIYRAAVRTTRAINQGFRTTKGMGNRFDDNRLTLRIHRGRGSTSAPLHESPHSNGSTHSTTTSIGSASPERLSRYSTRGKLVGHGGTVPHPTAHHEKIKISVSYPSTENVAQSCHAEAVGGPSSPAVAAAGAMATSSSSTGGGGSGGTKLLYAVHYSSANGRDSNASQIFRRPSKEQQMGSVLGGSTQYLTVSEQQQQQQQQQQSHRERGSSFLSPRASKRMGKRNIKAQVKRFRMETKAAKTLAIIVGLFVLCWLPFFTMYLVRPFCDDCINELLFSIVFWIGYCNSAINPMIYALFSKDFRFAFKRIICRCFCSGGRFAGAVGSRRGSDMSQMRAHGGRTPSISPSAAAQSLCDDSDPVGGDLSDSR
# From the text: (§1) Functional expression of cloned arthropod OctRs and human α2-ARs: The cDNAs for α-like OctRs from different arthropod species (e.g., Anopheles gambiae, Aedes aegypti, Periplaneta americana, Drosophila melanogaster, Ixodes scapularis, Balanus improvises) and for α2-AR subtypes from humans were individually subcloned into mammalian expression vectors. These plasmids, which harbor a resistance gene for the selection drug G418 and the cDNA sequence for the receptor of interest, were individually transfected into mammalian cells using a calcium phosphate precipitation method. G418 selection was then employed to generated stable clonal cell lines. Utilizing rapid filtration radioligand binding techniques, the cell surface density of receptor expression of the individual clonal cell lines was determined at equilibrium and those with similar high levels of expression were selected for further experiments. Briefly, binding conditions were 50 mM Tris binding buffer pH 7.4 at 25° C. and an ice-cold wash buffer 10 mM Tris-HCl, pH 7.4). The radioligand was [3H]rauwolscine and non-specific binding was determined in the presence of 10 μM atipamezole. Following the addition of membranes prepared from the clonal cell lines, samples were mixed and allowed 2 hr. to reach equilibrium before rapid filtration and washing through 0.3% PEI-treated GF/C filters. The radioactivity remaining on the filters was quantified by scintillation counting. Receptor density (Bmax) was back calculated knowing the specific activity of the radioligand and applying the equation for a square hyperbola model: Bmax=(Y·(KD+X))/X, where Y is [specifically bound radioligand] and X=[radio ligand concentration]. The affinity (KD) for the radioligand for each receptor was determined in separate saturation isotherm binding experiments using the same binding conditions as describe above.
# (§2) Measurement of OctR activation by measuring changes in intracellular calcium: Activation of arthropod α-like OctRs increases intracellular calcium via a Gq-coupling mechanism. This involves activation of phospholipase C leading to an increase in intracellular inositol triphosphate (IP3) which then activates IP3-gated calcium channels in the endoplasmic reticulum causing a transient rise in intracellular calcium. These changes in intracellular calcium upon OctR activation were measured by loading cells with intracellular calcium sensitive dye CALCIUM 6QR and reading the change in calcium-induced fluorescent signal over time on a FlexStation 3 microplate reader.
# [2] = biological target: T2, DmOctR (Drosophila octopamine receptor), cloned α-like OctR (Drosophila melanogaster, UniProt Q7JQF1); assay: as above; assay type: cell-based; details: agonist
# T2 construct: Gq calcium readout
# T2 sequence (Q7JQF1 1-645): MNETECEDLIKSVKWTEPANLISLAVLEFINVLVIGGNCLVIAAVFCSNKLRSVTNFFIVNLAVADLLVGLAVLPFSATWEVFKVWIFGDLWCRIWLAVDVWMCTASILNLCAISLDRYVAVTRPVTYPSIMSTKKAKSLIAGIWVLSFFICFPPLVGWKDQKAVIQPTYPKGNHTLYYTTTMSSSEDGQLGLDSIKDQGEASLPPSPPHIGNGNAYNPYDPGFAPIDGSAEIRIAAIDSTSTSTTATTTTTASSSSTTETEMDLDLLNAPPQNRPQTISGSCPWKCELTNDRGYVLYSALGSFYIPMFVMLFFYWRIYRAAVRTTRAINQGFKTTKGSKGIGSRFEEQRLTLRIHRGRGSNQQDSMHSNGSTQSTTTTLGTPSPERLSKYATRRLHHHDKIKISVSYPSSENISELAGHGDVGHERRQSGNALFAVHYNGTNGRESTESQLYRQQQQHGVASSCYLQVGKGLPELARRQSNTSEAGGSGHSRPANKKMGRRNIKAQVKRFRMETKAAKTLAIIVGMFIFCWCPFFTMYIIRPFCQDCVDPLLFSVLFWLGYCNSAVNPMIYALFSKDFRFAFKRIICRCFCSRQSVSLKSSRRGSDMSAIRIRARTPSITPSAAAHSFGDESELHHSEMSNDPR
# From the text: as §1, §2
# [3] = biological target: T3, PaOctR (Periplaneta octopamine receptor), cloned α-like OctR (Periplaneta americana, UniProt Q7YWB7); assay: as above; assay type: cell-based; details: agonist
# T3 construct: Gq calcium readout
# T3 sequence (Q7YWB7 1-628): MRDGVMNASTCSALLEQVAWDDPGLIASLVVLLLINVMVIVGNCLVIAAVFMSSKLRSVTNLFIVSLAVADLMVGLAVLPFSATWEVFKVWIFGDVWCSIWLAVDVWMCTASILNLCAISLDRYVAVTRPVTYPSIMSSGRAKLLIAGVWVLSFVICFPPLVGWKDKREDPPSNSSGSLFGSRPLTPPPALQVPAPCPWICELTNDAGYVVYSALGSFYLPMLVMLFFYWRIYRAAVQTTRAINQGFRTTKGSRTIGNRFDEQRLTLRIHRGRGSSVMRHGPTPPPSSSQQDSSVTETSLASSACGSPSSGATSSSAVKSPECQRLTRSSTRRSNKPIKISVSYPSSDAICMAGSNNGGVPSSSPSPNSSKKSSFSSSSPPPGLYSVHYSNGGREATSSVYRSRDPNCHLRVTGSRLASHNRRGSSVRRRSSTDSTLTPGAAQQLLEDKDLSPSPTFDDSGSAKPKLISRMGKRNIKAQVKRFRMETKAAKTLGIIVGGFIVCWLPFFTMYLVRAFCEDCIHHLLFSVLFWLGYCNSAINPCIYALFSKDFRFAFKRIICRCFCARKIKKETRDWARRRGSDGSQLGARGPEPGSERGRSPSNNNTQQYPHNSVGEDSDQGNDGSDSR
# From the text: as §1, §2
# [4] = test system: IsTOctR (Ixodes octopamine receptor), cloned α-like OctR; assay: as above; assay type: cell-based, Ixodes scapularis
# From the text: as §1, §2
# [5] = test system: AeOctR (Aedes octopamine receptor), cloned α-like OctR; assay: as above; assay type: cell-based, Aedes aegypti; details: agonist
# From the text: as §1, §2
# [6] = biological target: T4, Hsα2C-AR (human α2C adrenergic receptor) (Homo sapiens, UniProt P18825); assay: [3H]rauwolscine competition radioligand binding, membranes of clonal mammalian cell lines; details: 50 mM Tris pH 7.4, 25° C., 2 hr, Cheng-Prusoff
# T4 construct: expressed in transfected cells
# T4 sequence (P18825 1-462): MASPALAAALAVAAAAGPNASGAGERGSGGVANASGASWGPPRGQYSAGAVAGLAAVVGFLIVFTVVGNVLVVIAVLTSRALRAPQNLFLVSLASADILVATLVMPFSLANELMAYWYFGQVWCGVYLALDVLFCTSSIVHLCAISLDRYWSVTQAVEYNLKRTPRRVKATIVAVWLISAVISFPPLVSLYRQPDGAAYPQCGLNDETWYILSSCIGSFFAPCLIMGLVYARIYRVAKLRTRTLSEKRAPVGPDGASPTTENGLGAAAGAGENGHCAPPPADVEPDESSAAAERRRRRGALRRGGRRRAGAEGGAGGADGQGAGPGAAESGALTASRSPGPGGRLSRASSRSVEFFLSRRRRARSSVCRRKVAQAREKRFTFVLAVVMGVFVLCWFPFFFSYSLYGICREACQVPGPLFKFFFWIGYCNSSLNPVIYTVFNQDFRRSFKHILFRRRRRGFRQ
# From the text: as §1
# (§3) Measurement of compound affinities by competition radioligand binding: Affinities (Ki) for compounds were determined by [3H]rauwolscine competition binding using the same binding conditions as described above. The Ki values were calculated from IC50 values using the Cheng-Prusoff equation.
# [7] = biological target: T5, Hsα2A-AR (human α2A adrenergic receptor) (Homo sapiens, UniProt P08913); assay: as above; details: 50 mM Tris pH 7.4, 25° C., 2 hr, Cheng-Prusoff
# T5 construct: expressed in transfected cells; membranes
# From the text: as §1, §3
# [8] = test system: Anopheles gambiae mosquito isoform A OctR (AgAOctR); assay: OctR activation, change in intracellular calcium; assay type: cell-based; details: for selectivity Ki(Hsα2-AR)/EC50(OctR): AgAOctR over Homo sapien α2-AR subtypes
# From the text: as §1, §2
# [9] = test system: Aedes mosquito; assay: Protection against mosquito biting and toxicity to mosquitoes; assay type: in vivo; details: DEET: at the lowest concentration that produces maximal protection against biting (LC50)
# [10] = test system: Periplaneta americana OctR (PaOctR); assay: OctR activation, change in intracellular calcium; assay type: cell-based; details: 100 μM; normalized to octopamine at a supersaturating concentration; FIG. 1D
# From the text: as §1, §2
# [11] = test system: Aedes aegypti α-like OctR (AeOctR); assay: OctR activation, change in intracellular calcium; assay type: cell-based; details: 100 μM; normalized to octopamine at a supersaturating concentration; FIG. 1B
# From the text: as §1, §2
# [12] = biological target: T6, Drosophila melanogaster α-like OctR (DmOctR) (Drosophila melanogaster, UniProt Q7JQF1); assay: OctR activation, change in intracellular calcium; assay type: cell-based; details: 100 μM; normalized to octopamine at a supersaturating concentration; FIG. 1A
# T6 construct: expressed in transfected cells
# T6 sequence (Q7JQF1 1-645): T2 sequence (Q7JQF1 1-645)
# From the text: as §1, §2
# [13] = test system: Ixodes scapularis tick OctR (IsTOctR); assay: OctR activation, change in intracellular calcium; assay type: cell-based; details: 100 μM; normalized to octopamine at a supersaturating concentration; FIG. 1C
# From the text: as §1, §2
# [14] = test system: Balanus OctR (BiOctR); assay: OctR activation, change in intracellular calcium; assay type: cell-based, Balanus improvises; details: 100 μM; compared with octopamine
# From the text: as §1, with “Briefly, binding conditions were 50 mM Tris binding buffer pH 7.4 at 25° C. and an ice-cold wash buffer 10 mM Tris-HCl, pH 7.4).” left out, “Following the addition of membranes prepared from the clonal cell lines, samples were mixed and allowed 2 hr. to reach equilibrium before rapid filtration and washing through 0.3% PEI-treated GF/C filters.” left out, “The affinity (KD) for the radioligand for each receptor was determined in separate saturation isotherm binding experiments using the same binding conditions as describe above.” left out
# [15] = agonist, read-out: IsTOctR (Ixodes octopamine receptor) EC50
# T5 sequence (P08913 whole entry): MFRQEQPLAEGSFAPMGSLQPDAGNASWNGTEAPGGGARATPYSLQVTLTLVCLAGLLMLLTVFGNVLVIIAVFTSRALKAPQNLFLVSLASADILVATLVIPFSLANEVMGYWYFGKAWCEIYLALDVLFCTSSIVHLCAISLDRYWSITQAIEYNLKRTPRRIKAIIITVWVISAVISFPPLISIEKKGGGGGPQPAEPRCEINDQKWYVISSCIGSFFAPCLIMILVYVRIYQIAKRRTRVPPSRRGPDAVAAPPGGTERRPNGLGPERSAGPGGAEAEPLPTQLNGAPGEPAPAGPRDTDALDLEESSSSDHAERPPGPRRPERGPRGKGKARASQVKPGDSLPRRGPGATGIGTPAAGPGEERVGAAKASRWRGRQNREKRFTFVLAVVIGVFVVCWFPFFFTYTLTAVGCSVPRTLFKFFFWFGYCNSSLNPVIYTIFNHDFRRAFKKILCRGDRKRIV
Structure (SMILES),EC50 [1],"EC50 [4, 15]",Ki [6],Ki [7],selectivity Ki(Hsα2-AR)/EC50(OctR) [8],agonist response (change in intracellular calcium) relative to octopamine [11],agonist response (change in intracellular calcium) relative to octopamine [12],further results
Cc1cccc(C(O)c2cnc[nH]2)c1C (centres unmarked) [AZ0024],0.42 ± 0.13 nM,4.4 ± 2.9 nM,558 ± 85 nM,356 ± 77 nM,highly selective,,,EC50 [2]: 57 ± 13 nM; EC50 [3]: 5.9 ± 2.9 nM; EC50 [5]: 627 ± 274 nM
Cc1c(C(O)c2cnc[nH]2)cccc1C(F)(F)F (centres unmarked) [AZ1399],11 ± 3.7 nM,43 ± 11 nM,2110 ± 385 nM,3210 ± 672 nM,highly selective,,,EC50 [2]: 367 ± 237 nM; EC50 [3]: 82 ± 25 nM
COC(c1cnc[nH]1)c1cccc(C)c1C (centres unmarked) [AZ1400],2.3 ± 0.69 nM,35 ± 7.4 nM,973 ± 146 nM,1310 ± 247 nM,highly selective,,,EC50 [2]: 846 ± 440 nM; EC50 [3]: 85 ± 34 nM; EC50 [5]: > 20000 nM
C/C=C(\c1cnc[nH]1)c1cccc(C)c1C [AZ1409 Z-isomer],58 ± 41 nM,969 ± 358 nM,,,,,,
Cc1cccc(C(O)c2cnc[nH]2)c1 (centres unmarked) [AZ1410],38 ± 16 nM,185 ± 92 nM,9440 ± 6470 nM,4200 ± 1760 nM,highly selective,,,
C=C(c1cnc[nH]1)c1cccc(C(F)(F)F)c1C [AZ1415],0.58 ± 0.61 nM,18 ± 6.9 nM,,,highly selective,,,"efficacy (full/partial agonist) ([8]; in words, FIGS. 9-12): full efficacy; potency (EC50) ([8]; in words, FIGS. 9-12): high potency"
C/C=C(/c1cnc[nH]1)c1cccc(C)c1C [AZ1440 E-isomer],10 ± 4.7 nM,,,,,,,"EC50 ([4]; read-out: IsTOctR (Ixodes octopamine receptor) EC50, agonist): 90 ± 25 nM"
"CCN(CC)C(=O)c1cccc(C)c1 [DEET, N,N-diethyl-meta-toluamide]",,,,,,did not produce a significant agonist response,did not produce a significant agonist response,toxicity to mosquitoes [9]: lethal in half the mosquitoes; agonist response (change in intracellular calcium) relative to octopamine [10]: did not produce a significant agonist response; agonist response (change in intracellular calcium) relative to octopamine [13]: did not produce a significant agonist response
"CCCCN(CCC(=O)OCC)C(C)=O [IR3535, ethyl butylacetylaminopropionate]",,,,,,did not produce a significant agonist response,did not produce a significant agonist response,agonist response (change in intracellular calcium) relative to octopamine [10]: did not produce a significant agonist response; agonist response (change in intracellular calcium) relative to octopamine [13]: did not produce a significant agonist response
"CC1CCC(C(C)(C)O)C(O)C1 (centres unmarked) [PMD, para-menthane-3,8-diol]",,,,,,< 25%,< 25%,
"CCC(C)OC(=O)N1CCCCC1CCO (centres unmarked) [picaridin, 1-(1-methylpropoxycarbonyl)-2-(2-hydroxyethyl)piperidine]",,,,,,did not produce a significant agonist response,did not produce a significant agonist response,agonist response (change in intracellular calcium) relative to octopamine [10]: did not produce a significant agonist response; agonist response (change in intracellular calcium) relative to octopamine [13]: did not produce a significant agonist response; agonist response (change in intracellular calcium) relative to octopamine [14]: significant agonist responses
